The target in test [1] is segments of rabbit duodenum (Oryctolagus cuniculus, UniProt G1T803). Briefly: Rabbit duodenal smooth muscle strip tissue bath assay (contractile response). It is filed as cell-based. Conditions: contractility; negative logarithm of dose giving 50% of maximal response to motilin; compounds tested 10^-11 to 10^-4 M. As for the experimental part: The experimental protocol consisted of an equilibration period of 1 hour: a challenge with 10^-4 M acetylcholine followed by a wash-out period; a cumulative dose-response curve of a compound with, at the end, the addition of 10^-7 M motilin; and finally 10^-4 M acetylcholine. If the final response to 10^-4 M acetylcholine differed by more than 5% from the initial response, the results were discarded.
Chain of segments of rabbit duodenum (G1T803 1-400): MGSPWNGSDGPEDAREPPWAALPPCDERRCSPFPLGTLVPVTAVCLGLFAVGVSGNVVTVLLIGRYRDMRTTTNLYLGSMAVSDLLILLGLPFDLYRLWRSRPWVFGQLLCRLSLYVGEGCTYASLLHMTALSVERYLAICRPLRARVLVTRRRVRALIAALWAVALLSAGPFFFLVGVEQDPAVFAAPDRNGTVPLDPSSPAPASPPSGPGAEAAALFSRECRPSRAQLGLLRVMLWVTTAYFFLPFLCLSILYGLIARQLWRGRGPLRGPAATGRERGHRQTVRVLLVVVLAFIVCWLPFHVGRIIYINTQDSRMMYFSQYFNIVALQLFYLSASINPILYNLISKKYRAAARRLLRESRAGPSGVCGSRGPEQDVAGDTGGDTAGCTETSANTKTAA

Test [2] has as its target T1, motilin receptor (rabbit antral smooth muscle membranes) (Oryctolagus cuniculus, UniProt G1T803).
T1 construct: from tissue; host or cells: rabbit antral smooth muscle membranes
Put plainly: Motilin receptor binding affinity: displacement of [125I-Tyr7,Nle13]motilin(porcine). As for the experimental part: The motilin receptor binding affinity of the peptides of this invention was determined by using the general procedure of Bormans, Peelers and Vantrappen, Regul. Pept., 15, 143-153 (1986). The ability of the peptides to displace [^125 I-Tyr^7,Nle^13 ]motilin(porcine) bound to rabbit antral smooth muscle membranes, was determined by testing twice, each time in duplicate, at concentrations ranging from 10^-11 to 10^-4 M. The concentration displacing 50% of the label (IC50) was determined by fitting the data to the equation describing displacement, assuming a single class of motilin receptors to which labeled and non-labeled motilin bind with equal affinity and non-cooperatively. Fitting was performed using the iterative least-squares procedure of the SAS-software package (SAS Institute, Inc., Cary, N.C., U.S.A.). […] The concentration displacing 50% of the label is expressed using its negative logarithm (pIC50).
For orientation: In a radioligand displacement assay an active substance lowers the binding of a labelled ligand.

In a further test the target is T2, motilin receptor (Oryctolagus cuniculus, UniProt G1T803).
T2 construct: segments of rabbit duodenum; from tissue; host or cells: segments of rabbit duodenum
T2 sequence (G1T803 1-400): as above
Briefly: Motilin receptor antagonism: contractile response of rabbit duodenum to motilin in presence of compound. It is filed as cell-based. As for the experimental part: To determine motilin receptor antagonism, the contractile response of segments of rabbit duodenum to motilin was determined isotonically in the tissue bath in the presence of a fixed concentration of the compound of interest. The experimental protocol consisted of an equilibration period of 1 hour; a challenge with 10^-4 M acetylcholine followed by a wash-out period; a cumulative motilin dose-response curve in the presence of the motilin receptor antagonist; and finally a challenge with 10^-4 M acetylcholine. If the final response to 10^-4 M acetylcholine differed by more than 5% from the initial response, the results were discarded. The point corresponding to 50% of the maximal response to motilin (Emax) was determined by fitting the equation
through the data points. The dose of motilin giving 50% of the response is expressed using its negative logarithm (pEC50). Compounds of interest were tested at concentrations of 10^-8 to 10^-5 M.

[3] abbreviates: negative logarithm of concentration displacing 50% of [125I-Tyr7,Nle13]motilin(porcine) from rabbit antral smooth muscle membranes, read-out: pIC50 (converted).

Where two headings read alike, the source gives them in different places. Where a SMILES comes first, the peptide text is derived from it. Where no end group is shown, it is not given here. [ ]: non-standard residue; d: D form. Phe(4-I) = N[C@@H](Cc1ccc(I)cc1)C(=O)O; Cha = N[C@@H](CC1CCCCC1)C(=O)O

T1 sequence (G1T803 1-400): as above

The term pEC50 denotes the EC50 on a negative log10 scale, so that one unit is a factor of ten. A higher pEC50 goes with a small EC50. Consider “H-FVFIFTYGELQRLK-NH2 [[Phe^3, Leu^13, Lys^14]pMOT(1-14) amide, H-Phe-Val-Phe-Ile-Phe-Thr-Tyr-Gly-Glu-Leu-Gln-Arg-Leu-Lys-NH2]”, for which, in test [1], the pEC50 was < 4.5. Besides, the IC50 in test [2] (setting [3]) is 1.58 nM.

In the case of “H-FVFIFTYGELQRLQ-OH [[Phe^3, Leu^13]pMOT(1-14), H-Phe-Val-Phe-Ile-Phe-Thr-Tyr-Gly-Glu-Leu-Gln-Arg-Leu-Gln-OH]”, at motilin receptor (compound at 10^-5 M), the “block of the full contractile response to motilin” value is recorded as “completely blocked”. The “shift of the dose-response curve of motilin” value on motilin receptor (compound at 10^-6 M) is listed as “shifted by about one log unit”. In addition, in test [1], the pEC50 is reported as < 4.5. Moreover, in test [2] (setting [3]), the IC50 was 16.2 nM.

In the case of `CC[C@H](C)[C@H](NC(=O)[C@H](Cc1ccc(I)cc1)NC(=O)[C@@H](NC(=O)[C@@H](N)Cc1ccccc1)C(C)C)C(=O)N[C@@H](Cc1ccccc1)C(=O)N[C@H](C(=O)N[C@@H](Cc1ccc(O)cc1)C(=O)NCC(=O)N[C@@H](CCC(=O)O)C(=O)N[C@@H](CC(C)C)C(=O)N[C@@H](CCC(N)=O)C(=O)N[C@@H](CCCNC(=N)N)C(=O)N[C@@H](CC(C)C)C(=O)N[C@@H](CCC(N)=O)C(=O)O)[C@@H](C)O` [[p-I-Phe^3, Leu^13]pMOT(1-14), H-Phe-Val-p-L-Phe-Ile-Phe-Thr-Tyr-Gly-Glu-Leu-Gln-Arg-Leu-Gln-OH] (H-FV[Phe(4-I)]IFTYGELQRLQ-OH), the pEC50 in test [1] is < 4.5. For the same molecule, in test [2] (setting [3]), the IC50 was 43.7 nM.

`CC[C@H](C)[C@H](NC(=O)[C@H](Cc1ccccc1)NC(=O)[C@@H](NC(=O)[C@@H](N)CC1CCCCC1)C(C)C)C(=O)N[C@@H](Cc1ccccc1)C(=O)N[C@H](C(=O)N[C@@H](Cc1ccc(O)cc1)C(=O)NCC(=O)N[C@@H](CCC(=O)O)C(=O)N[C@@H](CC(C)C)C(=O)N[C@@H](CCC(N)=O)C(=O)N[C@@H](CCCNC(=N)N)C(=O)N[C@@H](CC(C)C)C(=O)N[C@@H](CCC(N)=O)C(=O)O)[C@@H](C)O` [[Cha^1, Phe^3, Leu^13]pMOT(1-14), H-Cha-Val-Phe-Ile-Phe-Thr-Tyr-Gly-Glu-Leu-Gln-Arg-Leu-Gln-OH] (H-[Cha]VFIFTYGELQRLQ-OH): the pEC50 in test [1] was < 4.5. The IC50 in test [2] (setting [3]) was 29.5 nM.

Turning to “FVFIFTYGELQRLQEKERNKGQ [[Phe^3,Leu^13]pMOT, [3-Phenylalanine, 13-leucine]motilin (Porcine), Pentakis-trifluoroacetate Salt]”, the pEC50 in test [1] is < 4.5. In test [2], the IC50 is 0.776 nM.

Turning to `CC[C@H](C)[C@H](NC(=O)[C@H](Cc1ccccc1)NC(=O)[C@@H](NC(=O)[C@@H](N)Cc1ccccc1)C(C)C)C(=O)N[C@@H](Cc1ccccc1)C(=O)N[C@H](C(=O)N[C@@H](Cc1ccc(O)cc1)C(=O)NCC(=O)N[C@@H](CCC(=O)O)C(=O)N[C@@H](CC(C)C)C(=O)N[C@@H](CCC(N)=O)C(=O)N[C@@H](CCCNC(=N)N)C(=O)N[C@@H](CC(C)C)C(=O)N[C@H](CCC(N)=O)C(N)=O)[C@@H](C)O` [H-Phe-Val-Phe-Ile-Phe-Thr-Tyr-Gly-Glu-Leu-Gln-Arg-Leu-D-Gln-NH2] (H-FVFIFTYGELQRL[dQ]-NH2), the pEC50 in test [1] was < 4.5. Besides, the IC50 in test [2] (setting [3]) was 0.977 nM.

Values taken from patent publication US5470830A, “Motilin-like polypeptides that inhibit gastrointestinal motor activity” (Ohmeda Pharmaceutical Products Division Inc., priority 1993, dated 1995).
